Tested on: H1 human embryonic stem cells
Assay: Analogue screening in combination with only GDF-8, SOX17 (Example 21, Tables 18 and 19)
Type: cell-based
Parameters: Sox17 Expression: % of positive control / Cell Number: % of positive control: tested at 2.5 µM
Conditions: for Sox17 Expression, % of positive control: 2.5 μM compound with 200 ng/ml GDF-8, four days, Table 19 hits; for Cell Number: Average Total Cell Number / Sox17 Expression: Average Total Intensity / Cell Number: % of positive control / Sox17 Expression: % of positive control: compound in combination with GDF8; for Cell Number: Average Total Cell Number / Sox17 Expression: Average Total Intensity: four assay plates; for Cell Number: % of positive control / Sox17 Expression: % of positive control: relative to Activin A/Wnt3a of the same plate
Summary of the method: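 H1 human ES cells treated four days with 200 ng/ml GDF-8 plus 2.5 μM compound (day 1, 0.5% FCS), GDF-8 alone in 2% FCS on day 3; triplicates. Fixed cells immunostained for SOX17 with Hoechst counterstain, imaged at 15 fields/well; total SOX17 intensity normalized to activin A/Wnt3a positive control.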

| Structure (SMILES) | Sox17 Expression, % of positive control | Cell Number: Average Total Cell Number | Sox17 Expression: Average Total Intensity | Cell Number: % of positive control [%] | Sox17 Expression: % of positive control [%] |
| --- | --- | --- | --- | --- | --- |
| CCN1CC(=O)NCCCc2cncc(c2)-c2ncnc(n2)Nc2cc(Cl)cc(c2)C1 [Compound 35, 10-Chloro-14-ethyl-3,5,7,14,17,23,27-heptaazatetracyclo[19.3.1.1˜2,6˜0.1˜8,12]Theptacosa-1(25), 2(27), 3,5,8(26), 9,11,21,23-nonaen-16-one] | 33.7 % of positive control | 7746 | 1.35E+08 | 48.8 | 38.0 |
| CCN1CC(=O)NCCCc2cccc(c2)-c2ncnc(n2)Nc2cccc(c2)C1 [Compound 15, 14-Ethyl-3,5,7,14,17,27-hexaazatetracyclo[19.3.1.1˜2,6˜1-8.12˜]heptacosa-1(25), 2(27), 3,5,8(26), 9,11,21,23-nonaen-16-one] |  | 4383 | 3.57E+07 | 28.7 | 10.6 |
| CN1CCC(=O)NCCCNc2cccc(c2)-c2ncnc(n2)Nc2cccc(c2)C1 [Compound 21, 14-Methyl-3,5,7,14,18,22,29-heptaazatetracyclo[21.3.1.1˜2,6˜0.1˜8,12˜]nonacosa-1(27), 2(29), 3,5,8(28), 9,11,23,25-nonaen-17-one] |  | 371 | 2.36E+06 | 2.3 | 0.7 |
| O=C1NCCCc2cncc(c2)-c2ncnc(n2)Nc2cccc(c2)CN2CCCC1C2 (stereo not shown) [Compound 17, 3,5,7,14,20,26,31-Heptaazapentacyclo[22.3.1.1-2,6˜1˜8,12˜1˜14,18˜]hentriaconta-1(28), 2(31), 3,5,8(30), 9,11,24,26-nonaen-19-one] | 23.6 % of positive control |  |  |  |  |
| CN1CCC(=O)NCCCc2cncc(c2)-c2ncnc(n2)Nc2cccc(c2)C1 [Compound 19, 14-Methyl-3,5,7,14,18,24,28-heptaazatetracyclo[20.3.1.1˜2,6˜0.1˜8,12˜]octacosa-1(26), 2(28), 3,5,8(27), 9,11,22,24-nonaen-17-one] | 69.5 % of positive control | 12569 | 2.40E+08 | 83.8 | 69.5 |
| O=C1CCN2CCN(CC2)Cc2cccc(c2)Nc2ncnc(n2)-c2ccnc(c2)NCCCN1 [Compound 13, 1,8,10,12,17,19,23,27,33-Nonaazapentacyclo[25.2.2.1˜3,7˜0.1˜9.13˜1˜14.18˜]tetratriaconta-3(34), 4,6,9(33), 10,12,14(32), 15,17-nonaen-24-one] |  | 3123 | 2.44E+07 | 20.8 | 7.1 |
| C=CCN1CC(=O)NCCCc2cncc(c2)-c2ncnc(n2)Nc2cccc(c2)C1 [Compound 40, 14-Prop-2-en-1-yl-3,5,7,14,17,23,27-heptaazatetracyclo[19.3.1.1˜2.6˜0.1˜8,12˜]heptacosa-1(25), 2(27), 3,5,8(26), 9,11,21,23-nonaen-16-one] | 52.2 % of positive control |  |  |  |  |
| O=C1NCCCc2cncc(c2)-c2ncnc(n2)Nc2cccc(c2)CN2CCC1CC2 [Compound 22, 1,8,10,12,16,22,30-Heptaazapentacyclo[22.2.2.1-3,7˜0.1˜9,13˜1-14,18˜]hentriaconta-3(31), 4,6,9(30), 10,12,14(29), 15,17-nonaen-23-one] | 27.4 % of positive control | 6727 | 1.06E+08 | 42.4 | 29.8 |
| O=C1NCCCc2cncc(c2)-c2ncnc(n2)Nc2cccc(c2)CN2CCC[C@@H]12 [Compound 18, (18S)-3,5,7,14,20,26,30-Heptaazapentacyclo[22.3.1.1˜2,6˜1˜8,12˜0.0˜14,18˜]triaconta-1(28), 2(30), 3,5,8(29), 9,11,24,26-nonaen-19-one] |  | 1921 | 2.94E+07 | 13.8 | 9.5 |
| CCN1CC(=O)NCCCc2cc(ccn2)-c2ncnc(n2)Nc2cc(Cl)cc(c2)C1 [Compound 14, 10-Chloro-14-ethyl-3,5,7,14,17,22,27-heptaazatetracyclo[19.3.1.1˜2,6˜1˜8,12˜]heptacosa-1(25), 2(27), 3,5,8(26), 9,11,21,23-nonaen-16-one] |  | 274 | 1.56E+05 | 2.0 | 0.1 |
| O=C1NCCCc2cncc(c2)-c2ncnc(n2)Nc2cc(Cl)cc(c2)CN2CCCC1C2 (stereo not shown) [Compound 37, 10-Chloro-3,5,7,14,20,26,31-heptaazapentacyclo[22.3.1.1˜2,6˜0.1˜8,12˜0.1˜14,18˜]hentriaconta-1(28), 2(31), 3,5,8(30), 9,11,24,26-nonaen-19-one] |  | 4187 | 3.11E+07 | 26.4 | 8.8 |
| O=C1CCN2CCN(CC2)Cc2cccc(c2)Nc2ncnc(n2)-c2cncc(c2)CCCN1 [Compound 23, 1,8,10,12,16,22,26,32-Octaazapentacyclo[24.2.2.1-3,7˜0.1˜9,13˜0.1˜14,18˜]tritriaconta-3(33), 4,6,9(32), 10,12,14(31), 15,17-nonaen-23-one] | 29.8 % of positive control | 8758 | 1.16E+08 | 58.4 | 33.7 |
| CN1CCCC(=O)NCCCc2cncc(c2)-c2ncnc(n2)Nc2cccc(c2)C1 [Compound 20, 14-Methyl-3,5,7,14,19,25,29-heptaazatetracyclo[21.3.1.1˜2,6˜0.1˜8,12˜]nonacosa-1(27), 2(29), 3,5,8(28), 9,11,23,25-nonaen-18-one] |  | 2793 | 6.77E+06 | 17.6 | 1.9 |
| O=C1CCN2CCN(CC2)Cc2cc(Cl)cc(c2)Nc2ncnc(n2)-c2cncc(c2)CCCN1 [Compound 34, 5-Chloro-1,8,10,12,16,22,26,32-octaazapentacyclo[24.2.2.1˜3.7˜0.1˜9,13˜0.1˜14.18˜]tritriaconta-3(33), 4,6,9(32), 10,12,14(31), 15,17-nonaen-23-one] | 68.0 % of positive control |  |  |  |  |
| CCN1CC(=O)NCCCc2cc(ccc2F)-c2ncnc(n2)Nc2cc(Cl)cc(c2)C1 [Compound 25, 10-Chloro-14-ethyl-22-fluoro-3,5,7,14,17,27-hexaazatetracyclo[19.3.1.1˜2,6˜0.1˜8,12˜]heptacosa-1(25), 2(27), 3,5,8(26), 9,11,21,23-nonaen-16-one] |  | 3879 | 1.76E+07 | 24.4 | 5.0 |

Reference: patent publication US9593305B2, “Differentiation of pluripotent stem cells” (Janssen Biotech, Inc., priority 2008, dated 2017)
